How the values were obtained:
[1] = system: Fusarium culmorum; test: Fusarium culmorum in vitro cell test; assay type: cell-based; settings: 120 h, liquid culture, 5 days incubation, read-out: efficacy (inhibition of fungal growth); for inhibition at 20 ppm: 20 ppm of active ingredient
Outline: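 Spores in liquid mineral-salts/saccharose medium exposed to compounds (DMSO ≤1% final) for 5 days. Mycelium growth measured spectrometrically, with inhibition derived from absorbance relative to fungicide-free control wells.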

[2] = Measurement of Log P values by HPLC on reversed phase columns (EEC directive 79/831 Annex V.A8); assay type: physicochemical; settings: Table 1, compounds of formula (I); method [a]: LC-UV, acidic range, 0.1% formic acid in water and acetonitrile
[3] = system: Pyrenophora teres; test: Pyrenophora teres in vitro cell test; assay type: cell-based; settings: 144 h, liquid culture, 6 days incubation, read-out: efficacy (inhibition of fungal growth); for inhibition at 20 ppm: 20 ppm of active ingredient
Outline: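 Compounds in DMSO were added to P. teres spore suspensions in glucose/peptone/yeast-extract liquid medium, testing inhibition of spore germination and mycelium growth. After 6 days, mycelium growth was read by absorbance. Inhibition was calculated relative to fungicide-free control wells.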

[4] = system: Septoria tritici; test: Septoria tritici in vitro cell test; assay type: cell-based; settings: Zymoseptoria tritici, 168 h, liquid culture, 7 days incubation, read-out: efficacy (inhibition of fungal growth); for inhibition at 20 ppm: 20 ppm of active ingredient
Method: B-11. Septoria tritici In Vitro Cell Test • Solvent: DMSO • Culture medium: 1 g KH2PO4 (VWR), 1 g K2HPO4 (VWR), 0.5 g Urea (VWR), 3 g KNO3 (Prolabo), 10 g saccharose (VWR), 0.5 g MgSO4, 7H2O (Sigma), 0.07 g CaCl2, 2H2O (Prolabo), 0.2 mg MnSO4, H2O (Sigma), 0.6 mg CuSO4, 5H2O (Sigma), 7.9 mg ZnSO4, 7H2O (Sigma), 0.1 mg H3BO3 (Merck), 0.14 mg NaMoO4, 2H2O (Sigma), 2 mg thiamine (Sigma), 0.1 mg biotine (VWR), 4 mg FeSO4, 7H2O (Sigma), QSP 1 liter • Inoculum: spore suspension Fungicides were solubilized in DMSO and the solution used to prepare the required range of concentrations. […] A spore suspension of S. tritici was prepared and diluted to the desired spore density. Fungicides were evaluated for their ability to inhibit spore germination and mycelium growth in liquid culture assay. The compounds were added in the desired concentration to the culture medium with spores. […] Inhibition of fungal growth was determined by comparing the absorbance values in wells containing the fungicides with the absorbance in control wells without fungicides.

[5] = system: Colletotrichum lindemuthianum; test: Colletotrichum lindemuthianum in vitro cell test; assay type: cell-based; settings: 144 h, liquid culture, 6 days incubation, read-out: efficacy (inhibition of fungal growth); for inhibition at 20 ppm: 20 ppm of active ingredient
Outline: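 C. lindemuthianum spores in liquid glucose–peptone–yeast extract medium were exposed to compounds dissolved in DMSO. After 6 days, mycelial growth was measured by absorbance, and inhibition was calculated against compound-free control wells.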

[6] = system: Alternaria brassicae; test: In vivo preventive test on Alternaria brassicae (leaf spot on radish or cabbage); settings: 500 ppm of active ingredient, sprayed on young radish or cabbage plants 24 h before inoculation, evaluated 3 to 4 days after inoculation, read-out: efficacy
Outline: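 Young radish or cabbage plants sprayed preventively with compound formulated in DMSO/acetone/Tween 80 and diluted in water; vehicle-treated plants as controls. Leaves inoculated by spraying an aqueous Alternaria brassicae spore suspension 24 h after treatment.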

[7] = system: Alternaria alternata; test: Alternaria alternata in vitro cell test; assay type: cell-based; settings: 120 h, liquid culture, 5 days incubation, read-out: efficacy (inhibition of fungal growth); for inhibition at 20 ppm: 20 ppm of active ingredient
Outline: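 Spores in glucose/mycological peptone/yeast extract liquid medium were exposed to DMSO-dissolved fungicides for 5 days. Inhibition of germination and mycelial growth was read spectrophotometrically, comparing absorbance against fungicide-free control wells.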

SMILES | inhibition at 20 ppm [1] [%] | chromatographic logP [2] | inhibition at 20 ppm [3] [%] | inhibition at 20 ppm [4] [%] | inhibition at 20 ppm [5] [%] | pest or weed control at 500 ppm [6] [%] | inhibition at 20 ppm [7] [%] | inhibition at 50 µM ([1]; 50 μMol/l of active ingredient) [%] | inhibition at 50 µM ([3]; 50 μMol/l of active ingredient) [%] | inhibition at 50 µM ([4]; 50 μMol/l of active ingredient) [%] | inhibition at 50 µM ([5]; 50 μMol/l of active ingredient) [%] | inhibition at 50 µM ([7]; 50 μMol/l of active ingredient) [%]
FC(F)(F)c1cccc(Sc2cnc(Cl)cc2C2=NOC[C@@H](Cc3ccc(Cl)cc3Cl)N2)c1 (racemic) [Compound I-022] | 90 to 100 | 4.97 | 90 to 100 | 80 to 89 | 90 to 100 | 80 to 89 |  |  |  |  |  | 
Cc1cccc(Sc2cnc3ccccc3c2C2=NOC[C@H](Cc3ccc(C)cc3C)N2)c1 (racemic) [Compound I-023] | 90 to 100 | 4.37 | 90 to 100 | 90 to 100 | 90 to 100 | 90 to 100 | 90 to 100 |  |  |  |  | 
Cc1ccc(C[C@@H]2CON=C(c3c(Sc4cccc(C(F)(F)F)c4)nnc4ccccc34)N2)c(C)c1 (racemic) [Compound I-029] | 80 to 89 | 4.66 | 90 to 100 | 90 to 100 | 90 to 100 | 80 to 89 | 90 to 100 |  |  |  |  | 
Cc1ccc(C[C@H]2CON=C(c3c(Sc4cccc(C(F)(F)F)c4)cnc4ccccc34)N2)c(C)c1 (racemic) [Compound I-030] | 90 to 100 | 4.57 | 90 to 100 | 70 to 79 | 90 to 100 | 70 to 79 | 90 to 100 |  |  |  |  | 
Cc1ccc(C[C@@H]2CON=C(c3nc(C)ncc3Sc3cccc(Cl)c3)N2)c(C)c1 (racemic) [Compound I-031] | 90 to 100 | 5.16 | 90 to 100 | 80 to 89 | 90 to 100 | 90 to 100 | 70 to 79 |  |  |  |  | 
Cc1cccc(Sc2cnc(C)nc2C2=NOC[C@@H](Cc3ccc(C)cc3C)N2)c1 (racemic) [Compound I-032] | 80 to 89 | 5.09 | 90 to 100 | 90 to 100 | 90 to 100 | 90 to 100 | 70 to 79 |  |  |  |  | 
Cc1ccc(C[C@@H]2CON=C(c3nc(C)ncc3Sc3cccc(Cl)c3)N2)c(Cl)c1 (racemic) [Compound I-033] | 90 to 100 | 5.24 | 90 to 100 | 90 to 100 | 90 to 100 | 80 to 89 |  |  |  |  |  | 
Cc1cc([C@@H]2CON=C(c3c(Sc4cccc(Cl)c4)nnc(C)c3C)N2)c(C)s1 (racemic) [Compound I-100] |  | 3.49 |  |  |  | 90 to 100 |  | 90 to 100 | 90 to 100 | 90 to 100 | 90 to 100 | 90 to 100

— patent US20250042886A1, “BIS(HETERO)ARYL THIOETHER OXADIAZINES AS FUNGICIDAL COMPOUNDS” (Bayer Aktiengesellschaft, priority 2021, published 2025)
